Source: the NIST ThermoML archive (doi:10.1021/je600552b)
Numbers after ± are expanded uncertainties.

Details: 101.33 kPa, Liquid, Falling or rolling sphere viscometry

| Compound | kinematic viscosity (293.15 K) [m2/s] | kinematic viscosity (303.15 K) [m2/s] | kinematic viscosity (313.15 K) [m2/s] | kinematic viscosity (323.15 K) [m2/s] | kinematic viscosity (333.15 K) [m2/s] | kinematic viscosity (343.15 K) [m2/s] | viscosity (293.15 K) [mPa·s] | viscosity (303.15 K) [mPa·s] | viscosity (313.15 K) [mPa·s] | viscosity (323.15 K) [mPa·s] | viscosity (333.15 K) [mPa·s] | viscosity (343.15 K) [mPa·s] |
| --- | --- | --- | --- | --- | --- | --- | --- | --- | --- | --- | --- | --- |
| CC/C=C\C/C=C\C/C=C\CCCCCCCC(=O)O [all-cis-9,12,15-octadecatrienoic acid] | 1.55e-05 ± 7.9e-07 | 1.24e-05 ± 6.3e-07 | 8.91e-06 ± 4.5e-07 | 7.26e-06 ± 3.7e-07 | 5.96e-06 ± 3e-07 | 5.13e-06 ± 2.6e-07 | – | – | – | – | – | – |
| CCCCC/C=C\C/C=C\CCCCCCCC(=O)OC [methyl (Z,Z)-9,12-octadecadienate] | – | – | – | – | – | – | 4.798 ± 0.17 | 3.822 ± 0.13 | 3.166 ± 0.11 | 2.55 ± 0.088 | 2.078 ± 0.071 | 1.755 ± 0.06 |
| CC/C=C\C/C=C\C/C=C\CCCCCCCC(=O)OC [methyl (Z,Z,Z)-9,12,15-octadecatrienoate] | – | – | – | – | – | – | 4.022 ± 0.14 | 3.301 ± 0.11 | 2.79 ± 0.096 | 2.299 ± 0.079 | 1.862 ± 0.064 | 1.596 ± 0.055 |
| CCCCCCCC/C=C\CCCCCCCC(=O)OC [methyl cis-9-octadecenoate] | – | – | – | – | – | – | 6.37 ± 0.22 | 4.922 ± 0.17 | 3.939 ± 0.14 | 3.097 ± 0.11 | 2.472 ± 0.085 | 2.054 ± 0.071 |
| CCCCCCCCCCCC(=O)OC [methyl dodecanoate] | – | – | – | – | – | – | 3.096 ± 0.11 | 2.475 ± 0.085 | 2.044 ± 0.07 | 1.643 ± 0.056 | 1.383 ± 0.047 | 1.173 ± 0.04 |
| CCCCCCCCCCCCCCCC(=O)OC [methyl hexadecanoate] | – | – | – | – | – | – | – | – | 3.764 ± 0.13 | 2.931 ± 0.1 | 2.336 ± 0.08 | 1.946 ± 0.067 |
| CCCCCCCCCCCCCC(=O)OC [methyl tetradecanoate] | – | – | – | – | – | – | 4.442 ± 0.15 | 3.496 ± 0.12 | 2.841 ± 0.098 | 2.252 ± 0.078 | 1.819 ± 0.063 | 1.521 ± 0.052 |
| CC/C=C\C/C=C\C/C=C\CCCCCCCC(=O)OCC(COC(=O)CCCCCCC/C=C\C/C=C\C/C=C\CC)OC(=O)CCCCCCC/C=C\C/C=C\C/C=C\CC [trilinolenin] | 2.37e-05 ± 8.1e-07 | 1.76e-05 ± 6.1e-07 | 1.36e-05 ± 4.6e-07 | 1.07e-05 ± 3.7e-07 | 8.68e-06 ± 3e-07 | 7.18e-06 ± 2.5e-07 | – | – | – | – | – | – |
